Results taken from ChEMBL document CHEMBL1141416, “Discovery of a potent and selective prostaglandin D2 receptor antagonist, [(3R)-4-(4-chloro-benzyl)-7-fluoro-5-(methylsulfonyl)-1,2,3,4-tetrahydrocyclopenta[b]indol-3-yl]-acetic acid (MK-0524)” (J Med Chem, 2007).
Blank lines part the entries; values can stand above or below the molecule they belong to.

What was measured:
[1] = target: T1, Prostaglandin E2 receptor EP1 subtype (Homo sapiens, UniProt P34995); assay: Binding affinity to human EP1 receptor expressed in HEK293 cells; format: cell-based
T1 sequence (P34995 whole entry): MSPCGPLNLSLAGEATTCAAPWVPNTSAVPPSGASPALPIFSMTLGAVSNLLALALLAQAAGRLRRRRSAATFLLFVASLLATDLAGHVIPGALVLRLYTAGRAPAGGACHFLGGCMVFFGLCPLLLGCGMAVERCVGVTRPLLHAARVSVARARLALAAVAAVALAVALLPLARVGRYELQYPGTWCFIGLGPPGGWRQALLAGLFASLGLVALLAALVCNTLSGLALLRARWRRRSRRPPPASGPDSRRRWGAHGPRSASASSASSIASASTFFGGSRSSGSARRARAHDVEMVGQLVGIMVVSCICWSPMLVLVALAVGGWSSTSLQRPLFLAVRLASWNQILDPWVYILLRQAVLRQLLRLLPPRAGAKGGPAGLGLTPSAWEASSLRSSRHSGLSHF

Thromboxane A2 receptor = target: T2, Thromboxane A2 receptor (Homo sapiens, UniProt P21731); assay: Binding affinity to human TP receptor expressed in HEK293 cells; format: cell-based
T2 sequence (P21731 whole entry): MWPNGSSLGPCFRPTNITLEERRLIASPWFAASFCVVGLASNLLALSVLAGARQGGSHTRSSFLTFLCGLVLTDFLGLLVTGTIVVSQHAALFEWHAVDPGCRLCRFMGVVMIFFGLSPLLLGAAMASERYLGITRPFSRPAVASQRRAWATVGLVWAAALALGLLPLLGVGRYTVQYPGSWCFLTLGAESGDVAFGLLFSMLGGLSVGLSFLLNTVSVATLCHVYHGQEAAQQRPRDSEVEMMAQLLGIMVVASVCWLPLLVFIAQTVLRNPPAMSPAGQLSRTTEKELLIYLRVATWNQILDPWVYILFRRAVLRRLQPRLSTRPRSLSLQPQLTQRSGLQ

[2] = target: Prostaglandin E2 receptor EP2 subtype (Homo sapiens, UniProt P43116); assay: Binding affinity to human EP2 receptor expressed in HEK293 cells; format: cell-based
[3] = target: T3, Prostaglandin D2 receptor (Homo sapiens, UniProt Q13258); assay: Binding affinity to human DP receptor expressed in HEK293 cells; format: cell-based
T3 sequence (Q13258 whole entry): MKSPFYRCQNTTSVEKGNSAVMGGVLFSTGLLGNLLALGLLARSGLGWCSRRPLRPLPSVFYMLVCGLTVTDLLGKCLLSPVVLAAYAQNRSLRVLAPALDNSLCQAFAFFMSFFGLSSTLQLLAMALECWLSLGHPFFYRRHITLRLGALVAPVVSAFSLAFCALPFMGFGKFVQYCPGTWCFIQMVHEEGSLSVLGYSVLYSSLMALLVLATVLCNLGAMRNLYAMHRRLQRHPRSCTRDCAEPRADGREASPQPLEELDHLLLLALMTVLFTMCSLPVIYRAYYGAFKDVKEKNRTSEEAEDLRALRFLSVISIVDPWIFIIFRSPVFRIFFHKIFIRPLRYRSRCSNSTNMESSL

[4] = target: Prostaglandin E2 receptor EP4 subtype (Homo sapiens, UniProt P35408); assay: Binding affinity to human EP4 receptor expressed in HEK293 cells; format: cell-based
[5] = Metabolic stability in rat hepatocytes after 2 hrs at 50 uM; format: ADME, cell-based, Hepatocyte; conditions: read-out: Stability
[6] = target: Prostaglandin F2-alpha receptor (Homo sapiens, UniProt P43088); assay: Binding affinity to human FP receptor expressed in HEK293 cells; format: cell-based
Prostacyclin receptor = Prostacyclin receptor (Homo sapiens, UniProt P43119); assay: Binding affinity to human IP receptor expressed in HEK293 cells; format: cell-based
[7] = target: T3, Prostaglandin D2 receptor; assay: Activity at human DP receptor in platelet rich plasma assessed as inhibition of PGD2-induced cAMP accumulation; format: functional
[8] = target: T4, Prostaglandin E2 receptor EP3 subtype (Homo sapiens, UniProt P43115); assay: Binding affinity to human EP3 receptor expressed in HEK293 cells; format: cell-based
T4 sequence (P43115 whole entry): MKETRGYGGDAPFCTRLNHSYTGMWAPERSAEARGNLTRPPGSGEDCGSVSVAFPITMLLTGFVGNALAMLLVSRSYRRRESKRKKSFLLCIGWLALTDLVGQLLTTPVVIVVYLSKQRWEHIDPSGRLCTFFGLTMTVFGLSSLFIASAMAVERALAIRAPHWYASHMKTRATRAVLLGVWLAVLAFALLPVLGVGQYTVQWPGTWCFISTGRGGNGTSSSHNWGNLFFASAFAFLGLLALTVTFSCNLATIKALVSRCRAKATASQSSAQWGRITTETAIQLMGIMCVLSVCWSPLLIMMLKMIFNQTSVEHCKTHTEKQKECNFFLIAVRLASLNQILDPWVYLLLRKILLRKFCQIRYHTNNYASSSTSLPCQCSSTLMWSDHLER

[9] = target: T3, Prostaglandin D2 receptor; assay: Activity at human DP receptor in washed platelets assessed as inhibition of PGD2-induced cAMP accumulation; format: functional
[10] = Plasma concentration in sheep allergic rhinitis model after 30 mins at 0.03 mg/kg, iv
[11] = Plasma concentration in sheep allergic rhinitis model after 30 mins at 0.1 mg/kg, iv
[12] = (§1) Cmax in Sprague-Dawley rat after 6 hrs at 10 mg/kg, po; format: ADME, organism-based; set-up: dose 10 mg/kg, route oral; conditions: Sprague-Dawley, in vivo
[13] = Cmax in Sprague-Dawley rat at 10 mg/kg, po; format: ADME, organism-based; set-up: dose 10 mg/kg, route oral; conditions: in vivo
[14] = Volume of distribution in Sprague-Dawley rat at 10 mg/kg, po and 5 mg/kg, iv; format: ADME, organism-based; conditions: in vivo
[15] = Plasma half life in Sprague-Dawley rat at 5 mg/kg, iv; format: ADME, organism-based; set-up: dose 5 mg/kg, route intravenous
[16] = Plasma clearance in Sprague-Dawley rat at 10 mg/kg, po and 5 mg/kg, iv; format: ADME, organism-based; set-up: unit not given here
[17] = Tmax in Sprague-Dawley rat biliary fluid by bile duct cannulation study at 5 mg/kg, iv; format: ADME, organism-based; set-up: dose 5 mg/kg, route intravenous
[18] = Bioavailability in Sprague-Dawley rat at 10 mg/kg, po and 5 mg/kg, iv; format: ADME, organism-based; conditions: in vivo
[19] = Cmax in Sprague-Dawley rat biliary fluid by bile duct cannulation study at 5 mg/kg, iv; format: ADME, organism-based; set-up: dose 5 mg/kg, route intravenous
Hepatocyte [20] = assay: Covalent protein binding in rat hepatocyte after 2 hrs at 10 uM; format: ADME, cell-based; conditions: hepatocytes
Liver microsomes [21] = assay: Protein binding in rat liver microsomes in presence of NADPH after 1 hr at 10 uM; format: ADME, Microsome
Hepatocyte [22] = assay: Protein binding in human hepatocyte after 2 hrs at 10 uM; format: ADME, cell-based; conditions: hepatocytes
Liver microsomes [23] = assay: Covalent protein binding in human liver microsomes in presence of NADPH after 1 hr at 10 uM; format: ADME, Microsome
[24] = Activity at human TP receptor in platelet rich plasma assessed as inhibition […]-induced platelet aggregation
Rattus norvegicus [25] = assay: AUC (0-6hrs) in Sprague-Dawley rat at 100 mg/kg, po; format: ADME, organism-based, Plasma; set-up: time < 6 hr, dose 100 mg/kg, route oral; conditions: in vivo
Rattus norvegicus [26] = assay: as §1; format: ADME, organism-based; set-up: dose 10 mg/kg, route oral; conditions: in vivo, 6 h
[27] = Cmax in Sprague-Dawley rat after 6 hrs at 100 mg/kg, po; format: ADME, organism-based; set-up: dose 100 mg/kg, route oral; conditions: in vivo
Rattus norvegicus [28] = assay: AUC (0-6hrs) in Sprague-Dawley rat at 10 mg/kg, po; format: ADME, organism-based, Plasma; set-up: time < 6 hr, dose 10 mg/kg, route oral; conditions: in vivo
[29] = Cmax in Sprague-Dawley rat at 100 mg/kg, po; format: ADME, organism-based; set-up: dose 100 mg/kg, route oral; conditions: in vivo

Sequence of Prostaglandin E2 receptor EP4 subtype (P35408 whole entry): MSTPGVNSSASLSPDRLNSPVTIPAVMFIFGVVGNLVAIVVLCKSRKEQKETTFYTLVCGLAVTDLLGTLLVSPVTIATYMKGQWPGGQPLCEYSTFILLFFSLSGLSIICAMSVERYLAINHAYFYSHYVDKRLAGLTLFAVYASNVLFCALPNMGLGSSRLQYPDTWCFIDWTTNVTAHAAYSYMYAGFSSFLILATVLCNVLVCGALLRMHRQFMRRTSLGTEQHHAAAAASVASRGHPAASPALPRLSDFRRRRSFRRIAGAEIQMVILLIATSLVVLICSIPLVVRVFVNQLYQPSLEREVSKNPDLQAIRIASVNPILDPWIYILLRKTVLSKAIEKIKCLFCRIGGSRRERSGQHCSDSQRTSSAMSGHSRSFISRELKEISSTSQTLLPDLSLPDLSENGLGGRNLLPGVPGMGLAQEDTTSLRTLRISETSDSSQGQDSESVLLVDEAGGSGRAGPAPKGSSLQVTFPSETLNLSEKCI
Sequence of Prostacyclin receptor (P43119 whole entry): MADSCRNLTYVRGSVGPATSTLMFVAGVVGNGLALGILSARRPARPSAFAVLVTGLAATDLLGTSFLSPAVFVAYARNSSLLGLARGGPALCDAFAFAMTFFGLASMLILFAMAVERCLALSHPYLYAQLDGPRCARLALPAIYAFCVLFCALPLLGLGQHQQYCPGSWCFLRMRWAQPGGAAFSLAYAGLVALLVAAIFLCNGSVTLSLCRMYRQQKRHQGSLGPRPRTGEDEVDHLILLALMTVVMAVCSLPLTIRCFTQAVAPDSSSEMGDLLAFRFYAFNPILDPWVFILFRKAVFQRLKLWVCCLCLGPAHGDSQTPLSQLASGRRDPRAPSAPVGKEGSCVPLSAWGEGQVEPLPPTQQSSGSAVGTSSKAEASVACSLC
Sequence of Prostaglandin F2-alpha receptor (P43088 whole entry): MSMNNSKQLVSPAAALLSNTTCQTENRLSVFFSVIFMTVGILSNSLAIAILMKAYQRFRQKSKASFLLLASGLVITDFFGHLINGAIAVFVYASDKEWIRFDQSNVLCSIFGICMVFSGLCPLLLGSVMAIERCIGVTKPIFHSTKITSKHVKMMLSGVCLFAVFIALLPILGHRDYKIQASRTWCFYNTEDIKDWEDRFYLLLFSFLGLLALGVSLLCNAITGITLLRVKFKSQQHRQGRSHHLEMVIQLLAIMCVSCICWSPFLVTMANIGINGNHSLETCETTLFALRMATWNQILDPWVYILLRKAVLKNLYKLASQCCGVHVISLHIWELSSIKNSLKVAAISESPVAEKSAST
Sequence of Prostaglandin E2 receptor EP2 subtype (P43116 whole entry): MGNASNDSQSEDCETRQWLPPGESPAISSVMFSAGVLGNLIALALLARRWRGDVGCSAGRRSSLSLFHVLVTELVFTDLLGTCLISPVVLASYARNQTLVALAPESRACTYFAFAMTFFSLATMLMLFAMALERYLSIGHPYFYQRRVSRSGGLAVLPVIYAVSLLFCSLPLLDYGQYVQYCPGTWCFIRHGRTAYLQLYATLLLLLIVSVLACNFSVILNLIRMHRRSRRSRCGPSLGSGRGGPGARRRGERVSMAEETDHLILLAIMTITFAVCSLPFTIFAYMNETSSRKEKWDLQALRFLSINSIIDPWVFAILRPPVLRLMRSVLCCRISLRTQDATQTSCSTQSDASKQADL

Structure (SMILES): CS(=O)(=O)c1cc(F)cc2c3c(n(Cc4ccc(Cl)cc4)c12)[C@@H](CC(=O)O)CC3 [LAROPIPRANT]
remaining at 2 h, 50 µM [5]: 32%
concentration at 0.5 h [10]: 0.091 µM
concentration at 0.5 h [11]: 0.67 µM

Structure (SMILES): CC(O)c1cc(S(C)(=O)=O)cc2c3c(n(Cc4ccc(Cl)cc4)c12)[C@@H](CC(=O)[O-])CC3.[Na+] (stereo not given in full)
Cmax [12]: 0.03 µM
Cmax [13]: 0.29 µM
Vdss [14]: 0.8 Not_given
half-life [15]: < 1 h
clearance [16]: 50
Tmax [17]: 0 h
bioavailability [18]: 8%
Cmax [19]: 3900 µM

Structure (SMILES): [3H]C([3H])([3H])S(=O)(=O)c1cc(C(C)=O)c2c(c1)c1c(n2Cc2ccc(Cl)cc2)[C@@H](CC(=O)O)CC1
Activity (Hepatocyte [20]): 8 pmol/mg/h
Activity (Liver microsomes [21]): 23 pmol/mg/h
Activity (Hepatocyte [22]): 5 pmol/mg/h
Activity (Liver microsomes [23]): 18 pmol/mg/h

Structure (SMILES): [3H]C([3H])([3H])S(=O)(=O)c1cc(C(C)O)c2c(c1)c1c(n2Cc2ccc(Cl)cc2)[C@@H](CC(=O)O)CC1 (stereo not given in full)
Activity (Hepatocyte [20]): 9 pmol/mg/h
Activity (Liver microsomes [21]): 13 pmol/mg/h
Activity (Hepatocyte [22]): < 5 pmol/mg/h
Activity (Liver microsomes [23]): 9 pmol/mg/h

Structure (SMILES): O=C([O-])C[C@H]1CCc2c1n(Cc1ccc(Cl)cc1)c1c(Br)cc(F)cc21.[Na+]
Cmax [12]: 3.7 µM
Cmax [13]: 10 µM
Vdss [14]: 0.4 Not_given
half-life [15]: 12 h
clearance [16]: 1.4
Tmax [17]: 1 h
bioavailability [18]: 41%
Cmax [19]: 29 µM

Structure (SMILES): CC(O)c1cc(S(C)(=O)=O)cc2c3c(n(Cc4ccc(Cl)cc4)c12)[C@@H](CC(=O)O)CC3 (stereo not given in full)
Ki [4]: > 20 µM
remaining at 2 h, 50 µM [5]: 100%
IC50 [24]: 43 µM

Structure (SMILES): CC(=O)c1cc(S(C)(=O)=O)cc2c3c(n(Cc4ccc(Cl)cc4)c12)[C@@H](CC(=O)O)CC3
remaining at 2 h, 50 µM [5]: 93%
IC50 [24]: 8.4 µM

Structure (SMILES): CS(=O)(=O)c1cc(F)cc2c3c(n(Cc4ccc(Cl)cc4)c12)[C@@H](CC(=O)[O-])CC3.[Na+]
Cmax [12]: 6.3 µM
Cmax [13]: 39 µM
Vdss [14]: 0.5 Not_given
half-life [15]: 7 h
clearance [16]: 2.4
Tmax [17]: 0.5 h
bioavailability [18]: 79%
Cmax [19]: 103 µM

Structure (SMILES): CC(=O)c1cc(S(C)(=O)=O)cc2c3c(n(Cc4ccc(Cl)cc4)c12)[C@@H](CC(=O)[O-])CC3.[Na+]
AUC (Rattus norvegicus [25]): 120 µM·h
Cmax (Rattus norvegicus [26]): 0.6 µM
Cmax [13]: 21 µM
Vdss [14]: 0.7 Not_given
half-life [15]: 1.4 h
clearance [16]: 14
Tmax [17]: 0 h
Cmax [27]: 7 µM
bioavailability [18]: 128%
AUC (Rattus norvegicus [28]): 30 µM·h
Cmax [19]: 1100 µM
Cmax [29]: 31 µM

Second part, the molecule after the results:

Ki [1]: 4.4 µM
Ki (Thromboxane A2 receptor): 0.00084 µM (antagonist)
Ki [2]: 0.41 µM (antagonist)
Ki [3]: 0.0015 µM (antagonist)
Ki [4]: 4.4 µM
remaining at 2 h, 50 µM [5]: 42%
Ki [6]: 14 µM
Ki (Prostacyclin receptor): 0.4 µM (antagonist)
IC50 [7]: 0.023 µM (antagonist)
Ki [8]: 0.47 µM (antagonist)
IC50 [9]: 0.00026 µM (antagonist)
Structure (SMILES): O=C(O)C[C@H]1CCc2c1n(Cc1ccc(Cl)cc1)c1c(Br)cc(F)cc21

Activity (Hepatocyte [20]): 45 pmol/mg/h
Activity (Liver microsomes [21]): 290 pmol/mg/h
Activity (Hepatocyte [22]): 16 pmol/mg/h
Activity (Liver microsomes [23]): 46 pmol/mg/h
Structure (SMILES): CC(=O)c1cc(F)cc2c3c(n(Cc4ccc(Cl)cc4)c12)[C@@H](C[14C](=O)O)CC3

Ki [1]: > 9 µM
Ki (Thromboxane A2 receptor): 0.014 µM (antagonist)
Ki [2]: 0.31 µM (antagonist)
Ki [3]: 0.0011 µM (antagonist)
Ki [4]: > 20 µM
remaining at 2 h, 50 µM [5]: 35%
Ki [6]: > 20 µM
Ki (Prostacyclin receptor): 14 µM
IC50 [7]: 0.015 µM (antagonist)
Ki [8]: 1.2 µM
IC50 [9]: 0.00029 µM (antagonist)
Structure (SMILES): CC(=O)c1cc(F)cc2c3c(n(Cc4ccc(Cl)cc4)c12)[C@@H](CC(=O)O)CC3

Activity (Hepatocyte [20]): 74 pmol/mg/h
Activity (Liver microsomes [21]): 460 pmol/mg/h
Activity (Hepatocyte [22]): 33 pmol/mg/h
Activity (Liver microsomes [23]): 33 pmol/mg/h
Structure (SMILES): O=[14C](O)C[C@H]1CCc2c1n(Cc1ccc(Cl)cc1)c1c(Br)cc(F)cc21

Cmax [12]: 7.5 µM
Cmax [13]: 21 µM
Vdss [14]: 0.5 Not_given
half-life [15]: 4 h
clearance [16]: 1.9
Tmax [17]: 2.5 h
bioavailability [18]: 52%
Cmax [19]: 81 µM
Structure (SMILES): CC(=O)c1cc(F)cc2c3c(n(Cc4ccc(Cl)cc4)c12)[C@@H](CC(=O)[O-])CC3.[Na+]
